Read-outs that look alike come from different tables or passages of the source.
Assays:
[1] = target: T1, EGFR kinase (Homo sapiens, UniProt P00533); experiment: EGFR radiometric kinase assay; type: biochemical; settings: 100 μM ATP, read-out: Inhibition activity, IC50 EGFR
T1 construct: EGFR kinase domain alone, Millipore; purchased Millipore
Description: (§1) The inhibitory activity against VEGFR2 or EGFR was determined by radiometric kinase assay. The experimental condition for VEGFR2 kinase assay was 6.25 ng of recombinant VEGFR2 kinase (VEGFR2 kinase domain alone, Millipore), 5 μg of substrate Poly(Glu-Tyr) (4:1, Sigma), kinase reaction buffer (20 mM MOPS pH 7.0, 1 mM EDTA, 5% glycerol, 0.01% Brij-35, 0.1% β-mercaptoethanol, 1 mg/mL BSA, 100 μM ATP, and 0.1 μCi per well [^33P] ATP (specific activity 3000 Ci/mmol, PerkinElmer)), and the test compound (diluted with 4% DMSO) or DMSO alone (as a control) in a final volume of 25 μL. Reactions were incubated at 30° C. for 30 min and stopped by adding 3% phosphoric acid, harvested onto a 96-well GF/B UniFilter (PerkinElmer) using a unifilter harvester (PerkinElmer), and counted with a TopCount microplate scintillation counter (PerkinElmer).
The experimental condition for EGFR kinase assay was 25 ng of EGFR kinase (EGFR kinase domain alone, Millipore), 3 μg of the substrate poly(Glu-Tyr), (Sigma), kinase reaction buffer (10 mM MOPS pH 7.0, 0.3 mM EDTA, 0.5% glycerol, 0.001% Brij-35, 10 mM MnCl2, 0.1 mg/ml BSA, 100 μM ATP, and 0.1 μCi per well [^33P]ATP (specific activity 3000 Ci/mmol, PerkinElmer)), and the test compound (diluted with 4% DMSO) or DMSO (as a control) in a final volume of 25 μL. Reactions were incubated at 30° C. for 30 min and stopped by adding 3% phosphoric acid, harvested onto a 96-well GF/B UniFilter (PerkinElmer) using a unifilter harvester (PerkinElmer), and counted with a TopCount microplate scintillation counter (PerkinElmer).
(§2) Results of inhibition activity against VEGFR2 and EGFR kinases by the selected compounds, which have IC50 values on B-Raf kinase <300 nM, are summarized in Table 6.

[2] = system: A375 melanoma cells and COLO205 colon cancer cells; experiment: Cell proliferation assay (CellTiter-96); type: cell-based; settings: Homo sapiens; A375 or COLO205, 72 hours treatment; read-out: Cytotoxicity IC50 for A375 or COLO205
Description: The anti-proliferative activities of compounds of formula (I) against B-Raf(V600E) mutant human cancer cell lines, A375 melanoma cells and COLO205 colon cancer cells, were measured using the CellTiter™-96 assay kit (Promega) following the manufacturer's instructions. In brief, the cells were maintained in DMEM containing 10% FCS and incubated at 37° C. in 5% CO2 atmosphere. Cells were plated at a density of 2,000 cells/well on a 96-well plate and incubated for 24 h. Then, these cells were treated with different concentrations of the test compounds and incubated for another 72 hours. At the end of the incubation, CellTiter™-96 Aqueous One Solution Reagent (Promega) was added and incubated for another 4.0 hours. Cell viability was determined by measuring absorbance at 490 nm using EMax® microplate reader (Molecular Devices). Data were processed and analyzed using GraphPad Prism.

[3] = target: T2, B-Raf(V600E) kinase (Homo sapiens, UniProt P15056, V600E); experiment: B-Raf(V600E) kinase assay ([33P] incorporation into MEK1(K97R)); type: biochemical; settings: class symbols; 8 μM ATP; read-out: IC50 against B-Raf(V600E) kinase
T2 construct: purchased Upstate Biotechnology
Description: (§3) Inhibition of kinase activity by a test compound disclosed herein was estimated by quantifying the amount of [^33P] incorporation of a substrate in the presence of the test compound. Standard assay conditions were 5 ng of recombinant B-Raf(V600E) kinase (Upstate Biotechnology) with 500 ng MEK1 (K97R) in assay buffer (8 μM ATP, 0.5 μCi [^33P] ATP (specific activity 3000 Ci/mmol, PerkinElmer), 50 mM Tris/HCl (pH7.5), and 1 mM EGTA, 1 mM Na3VO4, 1% 2-mercaptoethanol, 0.1% Brij 35, and 0.2 mg/ml BSA), and the test compound (diluted with 4% DMSO) or DMSO alone (as a control) in a final volume of 25 μL. Reactions were incubated at 30° C. for 30 min and stopped by adding 3% phosphoric acid, harvested onto a 96-well GF/B UniFilter (PerkinElmer) using a unifilter harvester (PerkinElmer), and counted with a TopCount microplate scintillation counter (PerkinElmer). The IC50 values of inhibitors were determined after carrying out assays at 3-fold serially diluted concentrations of each compound in duplication. The results were analyzed using linear regression software (GraphPad Prism 4; GraphPad Software Inc.).

[4] = target: T3, C-Raf kinase (Homo sapiens, UniProt P04049); experiment: C-Raf kinase assay ([33P] incorporation into MEK1(K97R)); type: biochemical; settings: class symbols; 8 μM ATP; read-out: IC50 against C-Raf kinase
T3 construct: purchased Upstate Biotechnology
Description: as §3, with “were 2” for “were 5”, “recombinant C-Raf” for “recombinant B-Raf(V600E)”

[5] = target: T4, B-Raf kinase (Homo sapiens, UniProt P15056); experiment: B-Raf kinase assay ([33P] incorporation into MEK1(K97R)); type: biochemical; settings: class symbols; 8 μM ATP; read-out: IC50 against B-Raf kinase
T4 construct: purchased Upstate Biotechnology
Description: as §3, with “B-Raf” for “B-Raf(V600E)”, “MEK1(K97R)” for “MEK1 (K97R)”, “[^33P]ATP” for “[^33P] ATP”, “BSA)” for “BSA), and the test compound (diluted with 4% DMSO) or DMSO alone (as a control)”

[6] = target: T5, VEGFR2 kinase (Homo sapiens, UniProt P35968); experiment: VEGFR2 radiometric kinase assay; type: biochemical; settings: given as bound; 100 μM ATP; read-out: Inhibition activity, IC50 VEGFR2
T5 construct: VEGFR2 kinase domain alone, Millipore; purchased Millipore
Description: as §1, §2

T1 sequence (P00533 712-979 limits assumed): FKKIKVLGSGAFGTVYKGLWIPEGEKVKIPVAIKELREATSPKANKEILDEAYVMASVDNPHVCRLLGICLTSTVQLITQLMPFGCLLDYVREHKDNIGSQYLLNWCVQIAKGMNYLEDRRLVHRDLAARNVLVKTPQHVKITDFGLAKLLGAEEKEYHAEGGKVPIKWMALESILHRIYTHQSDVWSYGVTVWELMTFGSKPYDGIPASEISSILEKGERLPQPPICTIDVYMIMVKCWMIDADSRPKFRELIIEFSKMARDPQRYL
T2 sequence (P15056 whole entry V600E): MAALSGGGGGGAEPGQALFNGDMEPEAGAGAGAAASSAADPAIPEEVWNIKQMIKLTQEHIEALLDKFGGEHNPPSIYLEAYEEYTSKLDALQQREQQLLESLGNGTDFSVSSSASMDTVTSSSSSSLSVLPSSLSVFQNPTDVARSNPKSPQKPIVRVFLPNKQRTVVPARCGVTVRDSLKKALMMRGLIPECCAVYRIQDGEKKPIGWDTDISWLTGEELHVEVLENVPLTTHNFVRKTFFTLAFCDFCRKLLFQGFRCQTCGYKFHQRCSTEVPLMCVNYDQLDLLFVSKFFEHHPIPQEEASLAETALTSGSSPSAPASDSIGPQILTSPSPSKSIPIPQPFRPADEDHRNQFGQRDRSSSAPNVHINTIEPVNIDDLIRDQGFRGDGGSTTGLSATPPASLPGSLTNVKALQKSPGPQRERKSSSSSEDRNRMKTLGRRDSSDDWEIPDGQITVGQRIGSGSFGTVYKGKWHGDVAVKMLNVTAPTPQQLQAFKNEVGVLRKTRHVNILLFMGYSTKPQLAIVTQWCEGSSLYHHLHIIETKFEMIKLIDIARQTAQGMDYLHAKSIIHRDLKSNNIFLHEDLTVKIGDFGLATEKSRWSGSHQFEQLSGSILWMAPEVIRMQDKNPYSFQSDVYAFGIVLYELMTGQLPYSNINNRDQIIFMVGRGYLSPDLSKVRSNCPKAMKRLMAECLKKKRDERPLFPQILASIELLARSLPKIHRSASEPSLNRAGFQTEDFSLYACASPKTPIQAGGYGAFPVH
T3 sequence (P04049 whole entry): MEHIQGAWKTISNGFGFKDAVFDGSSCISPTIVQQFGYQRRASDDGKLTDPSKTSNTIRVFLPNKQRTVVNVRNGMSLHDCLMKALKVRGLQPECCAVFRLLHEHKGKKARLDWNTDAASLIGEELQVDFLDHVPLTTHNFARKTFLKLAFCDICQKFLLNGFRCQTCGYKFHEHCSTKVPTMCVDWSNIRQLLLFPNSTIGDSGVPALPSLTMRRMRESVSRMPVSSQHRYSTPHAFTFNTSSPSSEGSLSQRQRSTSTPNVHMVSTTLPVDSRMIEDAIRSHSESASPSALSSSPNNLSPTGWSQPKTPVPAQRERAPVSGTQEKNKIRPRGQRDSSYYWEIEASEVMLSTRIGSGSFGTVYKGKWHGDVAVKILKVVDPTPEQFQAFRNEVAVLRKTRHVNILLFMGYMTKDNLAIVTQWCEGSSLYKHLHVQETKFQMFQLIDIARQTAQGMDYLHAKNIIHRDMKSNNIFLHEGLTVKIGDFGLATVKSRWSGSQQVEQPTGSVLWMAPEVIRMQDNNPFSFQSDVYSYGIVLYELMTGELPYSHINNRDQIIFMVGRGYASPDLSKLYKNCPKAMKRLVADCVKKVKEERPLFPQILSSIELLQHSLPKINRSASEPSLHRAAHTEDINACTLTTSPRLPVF
T4 sequence (P15056 whole entry): as the sequence (P15056 whole entry V600E) above, with E600V counted along it
T5 sequence (P35968 834-1162 limits assumed): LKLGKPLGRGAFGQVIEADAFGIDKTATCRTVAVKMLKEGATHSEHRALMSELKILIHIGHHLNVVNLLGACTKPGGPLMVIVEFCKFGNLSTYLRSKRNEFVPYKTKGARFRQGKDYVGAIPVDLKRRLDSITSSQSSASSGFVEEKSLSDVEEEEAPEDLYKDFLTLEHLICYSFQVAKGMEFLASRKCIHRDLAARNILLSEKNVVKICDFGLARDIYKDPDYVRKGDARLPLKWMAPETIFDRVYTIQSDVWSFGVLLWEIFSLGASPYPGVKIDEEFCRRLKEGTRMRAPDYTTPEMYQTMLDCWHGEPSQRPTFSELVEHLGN

| SMILES | IC50 ([1]; class symbols) [nM] | IC50 [3] [nM] | IC50 [4] [nM] | IC50 [5] [nM] | IC50 [6] [µM] | IC50 ([1]; given as bound) [nM] | IC50 [2] [nM] |
| --- | --- | --- | --- | --- | --- | --- | --- |
| CCCS(=O)(=O)Nc1ccc(F)c(Nc2ncnc3cc(OC)c(-c4cccnc4F)cc23)c1F [compound 28, N-(2,4-difluoro-3-(6-(2-fluoropyridin-3-yl)-7-methoxyquinazolin-4-ylamino)phenyl)propane-1-sulfonamide] | 300 to 1000 | < 300 | < 300 | < 300 | > 3 |  | < 2000 |
| CCCS(=O)(=O)Nc1ccc(F)c(Nc2ncnc3cc(OCCOC)c(-c4cccnc4F)cc23)c1F [compound 29, N-(2,4-difluoro-3-(6-(2-fluoropyridin-3-yl)-7-(2-methoxyethoxy)quinazolin-4-ylamino)phenyl)propane-1-sulfonamide] | 300 to 1000 | < 300 | < 300 | < 300 | > 3 |  | < 2000 |
| CCCS(=O)(=O)Nc1ccc(F)c(Nc2ncnc3ccc(-c4ccnc(OC)c4)cc23)c1F [compound 31, N-(2,4-difluoro-3-(6-(2-methoxypyridin-4-yl)quinazolin-4-ylamino)phenyl)propane-1-sulfonamide] | 300 to 1000 | < 300 | < 300 | < 300 | > 3 |  | < 2000 |
| CCCS(=O)(=O)Nc1ccc(F)c(Nc2ncnc3ccc(-c4ccc(=O)[nH]c4)cc23)c1F [compound 32, N-(2,4-difluoro-3-(6-(6-oxo-1,6-dihydropyridin-3-yl)quinazolin-4-ylamino)phenyl)propane-1-sulfonamide] |  | < 300 | 300 to 1000 | < 300 | > 3 | > 3000 | < 2000 |

The next lines start with results.

| IC50 ([1]; class symbols) [nM] | IC50 [3] [nM] | IC50 [4] [nM] | IC50 [5] [nM] | IC50 [6] [µM] | IC50 ([1]; given as bound) [nM] | SMILES | IC50 [2] [nM] |
| --- | --- | --- | --- | --- | --- | --- | --- |
| 1000 to 3000 | < 300 | < 300 | < 300 | > 3 |  | CCCS(=O)(=O)Nc1ccc(F)c(Nc2ncnc3cc(F)c(-c4ccncc4)cc23)c1F [compound 15, N-(2,4-difluoro-3-(7-fluoro-6-(pyridin-4-yl)quinazolin-4-ylamino)phenyl)propane-1-sulfonamide] | < 2000 |
|  | < 300 | < 300 | < 300 | > 3 | > 3000 | CCCCS(=O)(=O)Nc1ccc(F)c(Nc2ncnc3ccc(-c4cccnc4F)cc23)c1F [compound 18, N-(2,4-difluoro-3-(6-(2-fluoropyridin-3-yl)quinazolin-4-ylamino)phenyl)butane-1-sulfonamide] | < 2000 |
| 1000 to 3000 | < 300 | < 300 | < 300 | > 3 |  | O=S(=O)(Nc1ccc(F)c(Nc2ncnc3ccc(-c4cccnc4F)cc23)c1F)c1ccccc1 [compound 21, N-(2,4-difluoro-3-(6-(2-fluoropyridin-3-yl)quinazolin-4-ylamino)phenyl)benzenesulfonamide] | < 2000 |
| 1000 to 3000 | < 300 | 300 to 1000 | < 300 | > 3 |  | CCCS(=O)(=O)Nc1ccc(F)c(Nc2ncnc3ccc(-c4ccnc(F)c4)cc23)c1F [compound 24, N-(2,4-difluoro-3-(6-(2-fluoropyridin-4-yl)quinazolin-4-ylamino)phenyl)propane-1-sulfonamide] | < 2000 |
|  | < 300 | < 300 | < 300 | > 3 | > 3000 | CCCS(=O)(=O)Nc1ccc(F)c(Nc2ccnc3ccc(-c4ccnc(F)c4)cc23)c1F [compound 25, N-(2,4-difluoro-3-(6-(2-fluoropyridin-4-yl)quinolin-4-ylamino)phenyl)propane-1-sulfonamide] | < 2000 |
| 1000 to 3000 | < 300 | < 300 | 300 to 1000 | > 3 |  | CCCS(=O)(=O)Nc1ccc(F)c(Nc2ncnc3ccc(-c4ccc(OC)nc4)cc23)c1F [compound 27, N-(2,4-difluoro-3-(6-(6-methoxypyridin-3-yl)quinazolin-4-ylamino)phenyl)propane-1-sulfonamide] | < 2000 |
